Assay: xn = mol fraction of the nth substance listed
Conditions: Liquid, Vibrating tube method

COC(=O)OC [dimethyl carbonate] + CO
mass density [kg/m3]
Conditions	100 kPa	5000 kPa	10000 kPa	15000 kPa	20000 kPa	25000 kPa	30000 kPa	35000 kPa	40000 kPa
303.15 K, x1 = 0.0253	–	–	–	–	–	–	–	825.6	829
303.15 K, x1 = 0.0503	–	–	–	–	–	–	–	839.12	842.54
303.15 K, x1 = 0.0745	–	–	–	–	–	–	–	851.58	855.01
303.15 K, x1 = 0.101	–	–	–	–	–	–	–	864.54	867.99
303.15 K, x1 = 0.1502	–	–	–	–	–	–	–	886.72	890.21
303.15 K, x1 = 0.2059	–	–	–	–	–	–	–	909.73	913.3
303.15 K, x1 = 0.25	–	–	–	–	–	–	–	926.34	929.93
303.15 K, x1 = 0.3004	–	–	–	–	–	–	–	943.76	947.37
303.15 K, x1 = 0.3426	–	–	–	–	–	–	–	957.21	960.84
303.15 K, x1 = 0.3984	–	–	–	–	–	–	–	973.63	977.28
303.15 K, x1 = 0.4514	–	–	–	–	–	–	–	987.95	991.62
303.15 K, x1 = 0.5054	–	–	–	–	–	–	–	1001.4	1005.09
303.15 K, x1 = 0.5509	–	–	–	–	–	–	–	1011.94	1015.64
303.15 K, x1 = 0.6002	–	–	–	–	–	–	–	1022.49	1026.2
303.15 K, x1 = 0.6469	–	–	–	–	–	–	–	1031.7	1035.43
303.15 K, x1 = 0.6993	–	–	–	–	–	–	–	1041.37	1045.11
303.15 K, x1 = 0.7496	–	–	–	–	–	–	–	1050.01	1053.76
303.15 K, x1 = 0.799	–	–	–	–	–	–	–	1058.05	1061.82
303.15 K, x1 = 0.837	–	–	–	–	–	–	1060.13	1063.82	1067.59
303.15 K, x1 = 0.9093	–	–	–	–	–	–	1070.62	1074.26	1078.04
303.15 K, x1 = 0.9239	–	–	–	–	–	–	1072.65	1076.3	1080.08
303.15 K, x1 = 0.9575	–	–	–	–	–	–	1077.23	1080.88	1084.67
303.15 K, x1 = 0.9861	–	–	–	–	–	–	1081.06	1084.71	1088.51
303.15 K, x1 = 1	–	–	–	–	–	–	1082.9	1086.6	1090.4
308.15 K, x1 = 0.0253	791.22	795.98	800.77	805.37	809.72	814	817.9	821.58	825.25
308.15 K, x1 = 0.0503	804.54	809.3	814.1	818.7	823.06	827.34	831.25	834.92	838.6
308.15 K, x1 = 0.0745	816.8	821.56	826.37	831.02	835.38	839.68	843.59	847.26	850.9
308.15 K, x1 = 0.101	829.61	834.41	839.23	843.89	848.26	852.56	856.52	860.19	863.84
308.15 K, x1 = 0.1502	851.5	856.36	861.2	865.86	870.28	874.59	878.57	882.29	885.94
308.15 K, x1 = 0.2059	874.17	879.02	883.88	888.55	892.98	897.3	901.3	905.01	908.67
308.15 K, x1 = 0.25	890.57	895.46	900.33	905.01	909.44	913.77	917.78	921.49	925.16
308.15 K, x1 = 0.3004	907.81	912.71	917.59	922.27	926.71	931.05	935.06	938.77	942.45
308.15 K, x1 = 0.3426	921.16	926.05	930.95	935.63	940.07	944.37	948.39	952.1	955.78
308.15 K, x1 = 0.3984	937.46	942.41	947.31	952	956.44	960.75	964.78	968.49	972.13
308.15 K, x1 = 0.4514	951.72	956.66	961.58	966.27	970.72	975.04	979.08	982.78	986.43
308.15 K, x1 = 0.5054	965.11	970.05	974.93	979.62	984.08	988.4	992.45	996.15	999.81
308.15 K, x1 = 0.5509	975.56	980.5	985.39	990.08	994.54	998.87	1002.92	1006.62	1010.28
308.15 K, x1 = 0.6002	986.01	990.95	995.85	1000.49	1004.95	1009.29	1013.4	1017.09	1020.76
308.15 K, x1 = 0.6469	995.19	1000.13	1005.03	1009.68	1014.14	1018.48	1022.55	1026.24	1029.87
308.15 K, x1 = 0.6993	1004.82	1009.76	1014.62	1019.27	1023.74	1028.03	1032.11	1035.8	1039.42
308.15 K, x1 = 0.7496	1013.47	1018.4	1023.27	1027.93	1032.35	1036.65	1040.72	1044.41	1048.05
308.15 K, x1 = 0.799	1021.43	1026.37	1031.19	1035.85	1040.27	1044.57	1048.66	1052.34	1055.98
308.15 K, x1 = 0.837	1027.27	1032.2	1037.04	1041.64	1046.06	1050.37	1054.46	1058.14	1061.73
308.15 K, x1 = 0.9093	1037.72	1042.65	1047.49	1052.1	1056.52	1060.79	1064.88	1068.56	1072.16
308.15 K, x1 = 0.9239	1039.75	1044.68	1049.52	1054.13	1058.56	1062.82	1066.87	1070.55	1074.15
308.15 K, x1 = 0.9575	1044.31	1049.24	1054.08	1058.69	1063.12	1067.39	1071.43	1075.12	1078.72
308.15 K, x1 = 0.9861	1048.07	1053	1057.85	1062.46	1066.89	1071.16	1075.26	1078.94	1082.54
308.15 K, x1 = 1	1049.91	1054.84	1059.69	1064.3	1068.73	1073	1077.1	1080.78	1084.38
